Experimental data taken from PubChem BioAssay AID588733 (Vanderbilt Specialized Chemistry Center, 2011).
Active and inactive are the calls of the source. The rule behind the calls is not given here.

Target: Metabotropic glutamate receptor 2 (Rattus norvegicus) (UniProt P31421)
Assay: rat mGlu2 allosteric modulation, glutamate curve shift, thallium flux, GIRK cells (AID 588733)
Conditions: glutamate CRC fold shift, at 10 µM, active compounds read high

Sequence of Metabotropic glutamate receptor 2 (Rattus norvegicus) (P31421 whole entry, looked up): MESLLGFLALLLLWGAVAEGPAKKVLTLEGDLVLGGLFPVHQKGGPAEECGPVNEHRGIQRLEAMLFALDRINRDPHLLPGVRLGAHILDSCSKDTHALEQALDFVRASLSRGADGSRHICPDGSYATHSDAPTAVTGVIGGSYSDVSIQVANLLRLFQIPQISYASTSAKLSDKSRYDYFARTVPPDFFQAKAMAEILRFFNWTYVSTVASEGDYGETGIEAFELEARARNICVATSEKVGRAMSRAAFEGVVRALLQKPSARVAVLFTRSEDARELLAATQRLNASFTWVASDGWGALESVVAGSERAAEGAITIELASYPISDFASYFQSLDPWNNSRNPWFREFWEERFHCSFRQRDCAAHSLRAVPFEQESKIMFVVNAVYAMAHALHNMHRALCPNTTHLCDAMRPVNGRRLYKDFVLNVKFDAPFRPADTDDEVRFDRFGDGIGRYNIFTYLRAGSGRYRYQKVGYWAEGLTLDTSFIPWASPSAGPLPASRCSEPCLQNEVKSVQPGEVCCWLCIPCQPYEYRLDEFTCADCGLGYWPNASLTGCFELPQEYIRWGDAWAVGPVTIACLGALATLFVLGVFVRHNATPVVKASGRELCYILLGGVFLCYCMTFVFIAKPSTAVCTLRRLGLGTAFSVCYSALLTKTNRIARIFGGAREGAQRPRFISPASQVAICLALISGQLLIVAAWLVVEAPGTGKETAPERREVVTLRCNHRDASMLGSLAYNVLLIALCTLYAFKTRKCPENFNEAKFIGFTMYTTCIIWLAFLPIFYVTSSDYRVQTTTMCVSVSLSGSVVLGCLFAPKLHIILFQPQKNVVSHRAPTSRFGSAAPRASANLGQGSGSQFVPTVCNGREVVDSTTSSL

| Compound | fold shift |
| --- | --- |
| CC1(NC(=O)c2ccc(C#Cc3cccc(F)c3)cn2)COC1 | 0.92 (inactive) |
| C[C@@H](NC(=O)c1ccc(C#Cc2cccc(F)c2)cn1)C(C)(C)O | 1.02 (inactive) |
